Measurements: EP4596536A1 (Shanghai de Novo Pharmatech Co., Ltd., priority 2022, dated 2024)

Each compound was assayed against T1, TLR8 (Homo sapiens, UniProt Q9NR97) (assay: HEK-BLUE-hTLR8 cell SEAP reporter assay (Quanti-Blue)). Conditions: HEK-BLUE-hTLR8 cells, 0.5 nM to 15 µM, 24 hours.
T1 construct: host or cells: HEK293 (HEK-BLUE-hTLR8)
T1 sequence (Q9NR97 27-1041): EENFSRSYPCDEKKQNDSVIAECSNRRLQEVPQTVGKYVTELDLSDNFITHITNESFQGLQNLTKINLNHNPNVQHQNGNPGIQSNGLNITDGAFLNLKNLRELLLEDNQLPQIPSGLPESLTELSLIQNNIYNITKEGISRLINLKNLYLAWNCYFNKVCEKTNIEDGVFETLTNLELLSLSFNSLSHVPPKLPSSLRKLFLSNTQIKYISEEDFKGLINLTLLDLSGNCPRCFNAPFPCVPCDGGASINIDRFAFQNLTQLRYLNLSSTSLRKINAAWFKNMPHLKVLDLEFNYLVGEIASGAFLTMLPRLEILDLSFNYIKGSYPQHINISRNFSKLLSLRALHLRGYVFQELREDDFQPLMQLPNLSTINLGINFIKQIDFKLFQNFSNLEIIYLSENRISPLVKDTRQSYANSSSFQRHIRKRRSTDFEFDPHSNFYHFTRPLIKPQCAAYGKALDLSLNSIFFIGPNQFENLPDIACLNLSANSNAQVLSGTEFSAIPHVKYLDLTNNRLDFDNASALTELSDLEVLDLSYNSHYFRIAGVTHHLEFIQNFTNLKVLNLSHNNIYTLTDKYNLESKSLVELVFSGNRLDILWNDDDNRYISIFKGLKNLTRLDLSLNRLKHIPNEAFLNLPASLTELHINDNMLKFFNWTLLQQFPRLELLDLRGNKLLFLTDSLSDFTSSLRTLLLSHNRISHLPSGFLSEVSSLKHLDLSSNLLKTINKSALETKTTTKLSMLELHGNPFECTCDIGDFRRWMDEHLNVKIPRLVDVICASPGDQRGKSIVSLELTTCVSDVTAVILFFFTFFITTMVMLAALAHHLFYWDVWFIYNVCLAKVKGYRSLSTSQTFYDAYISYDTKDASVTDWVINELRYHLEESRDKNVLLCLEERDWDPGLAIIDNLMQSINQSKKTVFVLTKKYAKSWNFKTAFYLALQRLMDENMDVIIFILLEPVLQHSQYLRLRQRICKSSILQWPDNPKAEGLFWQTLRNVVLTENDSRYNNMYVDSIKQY
Assay type: cell-based
Procedure: In this experiment, the biological activity of TLR7 and TLR8 in the compound of formula I was detected using cell tests. This method was conducted in human embryonic kidney cells (HEK293) expressing TLR family members such as TLR4, TLR7, TLR8 or TLR9. TLR agonists activate TLRs, triggering the activation of downstream NF-kB, which in turn activates the secreted embryonic alkaline phosphatase (SEAP) reporter gene. The activity of SEAP was detected using the Quanti-Blue (InvivoGen) reagent, thereby reflecting the activities of TLR7 and TLR8 agonists.
The detailed experimental method was as follows: HEK-BLUE-hTLR7 and HEK-BLUE-hTLR8 cell lines were purchased from Invivogen Company and cultured in DMEM medium containing 4.5 g/L glucose (Sigma-Aldrich) and 10% fetal bovine serum under the conditions of temperature 37°C, humidity 95% and 5% CO2.
The compound was tested at a concentration ranging from 0.5 nM to 15 µM over a total of 10 concentration gradients. TLR7 or TLR8 agonists with known activity were added as positive controls, and 1 µL of DMSO was added as a negative control.
The cells were treated as follows: the cells were removed from the culture dish and centrifuged to remove the medium, and resuspended in a T-150 bottle with 10 mL of preheated PBS, 12 mL of preheated medium was added, and the cells were gently pipetted up and down and counted under a microscope. A 200,000/mL single-cell suspension was immediately prepared with medium and added to a 96-well plate at 200 µL/well (40,000/well). The final concentration of DMSO was 0.5%.
The compound was added and incubated in an incubator at 37°C, 5% CO2 for 24 hours.
A supernatant at 20 µL/well was aspirated into 180 µL of preheated Quanti-Blue at 37°C, incubated at 37°C for 1.5 hours, and detected for the absorbance (OD value) with a spectrophotometer at 650 nm. The formula for calculating the agonistic effect is as follows:
Effect % = (average OD value of the drug-administered group - average OD value of the DMSO group) / (average OD value of the positive drug group - average OD value of the DMSO group) × 100
Graphpad software was used to fit the concentration-effect curve, and EC50 was calculated. The test results are shown in Table 15 (A denotes < 250 nM, B denotes 250 nM-1 µM, C denotes 1 µM-2 µM, D denotes > 2 µM, and - denotes not listed or not tested): Table 15

`CCCN(CCO)C(=O)C1=Cc2ccc(C3(C(=O)Nc4cnc5c(c4)CN(C(=O)CNC(=O)CCOCCOCCNC(=O)CN4C(=O)C=CC4=O)CC5)CC3)cc2N=C(N)C1` [II-46, 2-amino-8-(1-((6-(1-(2,5-dioxo-2,5-dihydro-1H-pyrrol-1-yl)-2,12-dioxo-6,9-dioxa-3,13-diazapentadecan-15-acyl)-5,6,7,8-tetrahydro-1,6-naphthyridin-3-yl)carbamoyl)cyclopropyl)-N-(2-hydroxyethyl)-N-propyl-3H-benzo[b]azepine-4-formamide] was tested. Which EC50 did it give?
The EC50 was less than 250 nM.

For `CCCN(OCC)C(=O)C1=Cc2ccc(C3(C(=O)Nc4cnc5c(c4)CN(C(=O)CCOCCOCCOCCOCCOCCOCCNC(=O)CCN4C(=O)C=CC4=O)CC5)CC3)cc2N=C(N)C1` [II-66, 2-amino-8-(1-((6-(1-(2,5-dioxo-2,5-dihydro-1H-pyrrol-1-yl)-3-oxo-7,10,13,16,19,22-hexaoxa-4-azapentacosan-25-acyl)-5,6,7,8-tetrahydro-1,6-naphthyridin-3-yl)carbamoyl)cyclopropyl)-N-ethoxy-N-propyl-3H-benzo[b]azepine-4-formamide], which EC50 is on record?
Its EC50 is 250 to 1000 nM.

For `CCCN(CCO)C(=O)C1=Cc2ccc(C3(C(=O)Nc4cnc5c(c4)CN(C(=O)CCOCCOCCOCCOCCOCCOCCNC(=O)CCN4C(=O)C=CC4=O)CC5)CC3)cc2N=C(N)C1` [II-12, 2-amino-8-(1-((6-(1-(2,5-dioxo-2,5-dihydro-1H-pyrrol-1-yl)-3-oxo-7,10,13,16,19,22-hexaoxa-4-azapentacosan-25-acyl)-5,6,7,8-tetrahydro-1,6-naphthyridin-3-yl)carbamoyl)cyclopropyl)-N-(2-hydroxyethyl)-N-propyl-3H-benzo[b]azepine-4-formamide], which EC50 is on record?
Its EC50 is 250 to 1000 nM.

`CCCN(CCO)C(=O)C1=Cc2ccc(C3(C(=O)Nc4cnc5c(c4)CN(C(=O)OCc4ccc(NC(=O)[C@H](CCCNC(N)=O)NC(=O)[C@@H](NC(=O)C6COC(CN7C(=O)C=CC7=O)OC6)C(C)C)cc4)CC5)CC3)cc2N=C(N)C1` (stereo partly shown) [II-98] was tested. Which EC50 did it give?
The EC50 was 250 to 1000 nM.

Which EC50 does the source give for `CCCN(CCOP(=O)(N[C@@H](C)C(=O)OCc1ccccc1)Oc1ccccc1)C(=O)C1=Cc2ccc(C3(C(=O)Nc4cnc5c(c4)CNCC5)CC3)cc2N=C(N)C1` (single isomer, unassigned) [Compound 25-1] here?
The EC50 was less than 250 nM.

How did the EC50 turn out when `CCCN(CCO)C(=O)C1=Cc2ccc(C3(C(=O)Nc4cnc5c(c4)CN(C(=O)OCc4ccc(NC(=O)[C@H](CC(N)=O)NC(=O)[C@H](C)NC(=O)[C@H](C)NC(=O)CCCCCN6C(=O)C=CC6=O)cc4)CC5)CC3)cc2N=C(N)C1` [II-96] was run?
Its EC50 is 250 to 1000 nM.

For `CCCN(CCO)C(=O)C1=Cc2ccc(C3(C(=O)NCc4cccc(N)c4)CC3)cc2N=C(N)C1` [Compound 18, 2-amino-8-(1-((3-aminobenzyl)carbamoyl)cyclopropyl)-N-(2-hydroxyethyl)-N-propyl-3H-benzo[b]azepine-4-formamide], which EC50 is on record?
The EC50 was less than 250 nM.

How did the EC50 turn out when `CCCN(CCO)C(=O)C1=Cc2ccc(C3(C(=O)Nc4cnc5c(c4)CN(C(=O)[C@H](CCCNC(N)=O)NC(=O)[C@@H](N)C(C)C)CC5)CC3)cc2N=C(N)C1` [Example 33, 2-amino-8-(1-((6-((S)-2-((S)-2-amino-3-methylbutanoylamino)-5-ureidopentanoyl)-5,6,7,8-tetrahydro-1,6-naphthyridin-3-yl)carbamoyl)cyclopropyl)-N-(2-hydroxyethyl)-N-propyl-3H-benzo[b]azepine-4-formamide] was run?
The EC50 was less than 250 nM.

Which EC50 does the source give for `CCCN(CCC)C(=O)C1=Cc2ccc(C3(C(=O)Nc4ccc5c(c4)CNCC5)CC3)cc2N=C(N)C1` [Compound 15, 2-amino-N,N-dipropyl-8-(1-((1,2,3,4-tetrahydroisoquinolin-7-yl)carbamoyl)cyclopropyl)-3H-benzo[b]azepine-4-formamide] here?
Its EC50 is less than 250 nM.

With `CCCN(CCO)C(=O)C1=Cc2ccc(C3(C(=O)Nc4cnc5c(c4)CN(C(=O)C4COC(CN6C(=O)C=CC6=O)OC4)CC5)CC3)cc2N=C(N)C1` (single isomer, unassigned) [II-77, 2-amino-8-(1-((6-(2-((2,5-dioxo-2,5-dihydro-1H-pyrrol-1-yl)methyl)-1,3-dioxan-5-carbonyl)-5,6,7,8-tetrahydro-1,6-naphthyridin-3-yl)carbamoyl)cyclopropyl)-N-(2-hydroxyethyl)-N-propyl-3H-benzo[b]azepine-4-formamide] as the compound, how does the EC50 read?
The EC50 was 250 to 1000 nM.

`CCCN(CCO)C(=O)C1=Cc2c(F)cc(C3(C(=O)Nc4cncc(CNC(=O)CNC(=O)CCOCCOCCNC(=O)CN5C(=O)C=CC5=O)c4)CC3)cc2N=C(N)C1` [II-64, 2-amino-8-(1-((5-(17-(2,5-dioxo-2,5-dihydro-1H-pyrrol-1-yl)-3,6,16-trioxo-9,12-dioxa-2,5,15-triazaheptadecyl)pyridin-3-yl)carbamoyl)cyclopropyl)-N-(2-hydroxyethyl)-6-fluoro-N-propyl-3H-benzo[b]azepine-4-formamide] was tested. Which EC50 did it give?
The EC50 was 250 to 1000 nM.

For `CCCN(CCO)C(=O)C1=Cc2ccc(C3(C(=O)Nc4cnc5c(c4)CN(C(=O)[C@H](CCCNC(N)=O)NC(=O)[C@@H](NC(=O)CCCCCN4C(=O)C=CC4=O)C(C)C)CC5)CC3)cc2N=C(N)C1` [II-19, 2-amino-8-(1-((6-((S)-2-((S)-2-(6-(2,5-dioxo-2,5-dihydro-1H-pyrrol-1-yl)hexanoylamino)-3-methylbutanoylamino)-5-ureidopentanoyl)-5,6,7,8-tetrahydro-1,6-naphthyridin-3-yl)carbamoyl)cyclopropyl)-N-(2-hydroxyethyl)-N-propyl-3H-benzo[b]azepine-4-formamide], which EC50 is on record?
The EC50 was 250 to 1000 nM.

With `CCCN(CCO)C(=O)C1=Cc2ccc(C3(C(=O)Nc4cnc5c(c4)CN(C(=O)OCc4ccc(NC(=O)CCOCCOCCNC(=O)CCN6C(=O)C=CC6=O)cc4)CC5)CC3)cc2N=C(N)C1` [II-28, 4-(3-(2-(2-(3-(2,5-dioxo-2,5-dihydro-1H-pyrrol-1-yl)propionylamino)ethoxy)ethoxy)propionylamino)benzyl 3-(1-(2-amino-4-((2-hydroxyethyl)(propyl)carbamoyl)-3H-benzo[b]azepin-8-yl)cyclopropane-1-formylamino)-7,8-dihydro-1,6-naphthyridine-6(5H)-carboxylate] as the compound, how does the EC50 read?
Its EC50 is 250 to 1000 nM.

With `CCCN(CCO)C(=O)C1=Cc2ccc(C3(C(=O)NCc4cncc(N)c4)CC3)cc2N=C(N)C1` [Compound 22, 2-amino-8-(1-(((5-aminopyridin-3-yl)methyl)carbamoyl)cyclopropyl)-N-(2-hydroxyethyl)-N-propyl-3H-benzo[b]azepine-4-formamide] as the compound, how does the EC50 read?
Its EC50 is 250 to 1000 nM.

Which EC50 does the source give for `CCCN(CCO)C(=O)C1=Cc2ccc(C3(C(=O)Nc4cnc5c(c4)CN(C(=O)CCOCCOCCNC(=O)OCc4ccc(NC(=O)[C@H](CCCNC(N)=O)NC(=O)[C@@H](NC(=O)CCCCCN6C(=O)C=CC6=O)C(C)C)cc4)CC5)CC3)cc2N=C(N)C1` [II-104] here?
The EC50 was 250 to 1000 nM.

Which EC50 does the source give for `CCCN(CCO)C(=O)C1=Cc2ccc(C3(C(=O)Nc4cncc(N)c4)CC3)cc2N=C(N)C1` [Compound 20, 2-amino-8-(1-((5-aminopyridin-3-yl)carbamoyl)cyclopropyl)-N-(2-hydroxyethyl)-N-propyl-3H-benzo[b]azepine-4-formamide] here?
The EC50 was 250 to 1000 nM.
